One data set concerns HIV-IIIb. Put plainly: Test A: Antiviral Assay in MT4 Cells. The data set is classed as cell-based, HIV-1. The settings on record: Human immunodeficiency virus 1, IIIB, MT4, 120 h; for inhibition at 0.2 µM: read-out: % inhibition at 0.2 μM; for inhibition at 2 µM: read-out: % inhibition at 2 μM. The procedure:
Test A: Antiviral Assay in MT4 Cells
MT-4 cells were next mixed with HIV-IIIb at an m.o.i of 0.003 for 1 hour, after which time 35 μL of virus/cell mixture (2000 cells) was immediately added to each well containing 40 μL of diluted compound. The plates were then incubated at 37° C. for 5 days. […] Cell lysis was carried out by incubating at room temperature for 10 min and then chemiluminescence was read.

The nature of data set [1]: Test B: Cytotoxicity Assay. The data set is classed as cell-based. To be noted: human, uninfected MT-4 cells, same protocol as Test A. Summed up: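 Uninfected MT-4 cells (2000 per well) incubated with diluted compound at 37° C. for 5 days, following the antiviral protocol without HIV-IIIb.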

For the molecule `CC(C)C(C)(O)C#Cc1ccc(-c2cccc3c(NS(C)(=O)=O)nn(C)c23)c([C@H](Cc2cc(F)cc(F)c2)NC(=O)Cn2nc(C(F)(F)F)c3c2C(F)(F)[C@@H]2C[C@H]32)n1` (stereo partly drawn) [Compound 62, 2-((3bS,4aR)-5,5-difluoro-3-(trifluoromethyl)-3b,4,4a,5-tetrahydro-1H-cyclopropa[3,4]cyclopenta[1,2-c]pyrazol-1-yl)-N-((1S)-2-(3,5-difluorophenyl)-1-(6-(3-hydroxy-3,4-dimethylpent-1-yn-1-yl)-3-(1-methyl-3-(methylsulfonamido)-1H-indazol-7-yl)pyridin-2-yl)ethyl)acetamide], in the data set on HIV-IIIb, the inhibition at 0.2 µM stood at 100% and the inhibition at 2 µM is 100%. For the same molecule, it took 5.7 µM to reach half-maximal cytotoxicity in data set [1] (CC50 at 5 days).
With `Cn1nc(NS(C)(=O)=O)c2c(Cl)ccc(-c3cc(-c4ccccc4Cl)cnc3[C@H](Cc3cc(F)cc(F)c3)NC(=O)Cn3nc(C(F)F)c4c3C(F)(F)[C@@H]3C[C@H]43)c21` [Compound 181C, N—((S)-1-(3-(4-chloro-1-methyl-3-(methylsulfonamido)-1H-indazol-7-yl)-5-(2-chlorophenyl)pyridin-2-yl)-2-(3,5-difluorophenyl)ethyl)-2-((3b-S,4aR)-3-(difluoromethyl)-5,5-difluoro-3b,4,4a,5-tetrahydro-1H-cyclopropa[3,4]cyclopenta[1,2-c]pyrazol-1-yl)acetamide], in the data set with HIV-IIIb, the inhibition at 0.2 µM worked out at 100% and the inhibition at 2 µM came to 100%. The same molecule returned a CC50 at 5 days in data set [1] of over 53.2 µM.
For `Cn1nc(NS(C)(=O)=O)c2c(Cl)ccc(-c3ccc(C#CC(C)(C)O)nc3[C@H](Cc3cc(F)cc(F)c3)NC(=O)Cn3nc(C(F)F)cc3C(F)F)c21` [Compound 189, (S)-2-(3,5-bis(difluoromethyl)-1H-pyrazol-1-yl)-N-(1-(3-(4 chloro-1-methyl-3-(methylsulfonamido)-1H-indazol-7-yl)-6-(3-hydroxy-3-methylbut-1-yn-1-yl)pyridin-2-yl)-2-(3,5-difluorophenyl)ethyl)acetamide], in the data set on HIV-IIIb, the inhibition at 0.2 µM turned out to be 88% and the inhibition at 2 µM was 88%. Also, it took 17.2 µM to reach half-maximal cytotoxicity in data set [1] (CC50 at 5 days).
Regarding `Cn1nc(NS(C)(=O)=O)c2c(Cl)ccc(-c3ccc(C#CC(C)(C)O)nc3[C@H](Cc3cc(F)cc(F)c3)NC(=O)Cn3nc(C(F)(F)F)cc3C3CC3)c21` [Compound 191, (S)—N-(1-(3-(4 chloro-1-methyl-3-(methylsulfonamido)-1H-indazol-7-yl)-6-(3-hydroxy-3-methylbut-1-yn-1-yl)pyridin-2-yl)-2-(3,5-difluorophenyl)ethyl)-2-(5-cyclopropyl-3-(trifluoromethyl)-1H-pyrazol-1-yl)acetamide], in the data set on HIV-IIIb, the inhibition at 0.2 µM was determined as 91% and the inhibition at 2 µM was determined as 91%. Further, the CC50 at 5 days in data set [1] is 10.1 µM.
With `CC(C)C(=O)Nc1nn(C)c2c(-c3ccc(C#CC(C)(C)O)nc3[C@H](Cc3cc(F)cc(F)c3)NC(=O)Cn3nc(C(F)F)c4c3C(F)(F)[C@@H]3C[C@H]43)ccc(Cl)c12` [Compound 96, N-(4-chloro-7-(2-((S)-1-(2-((3b-S,4aR)-3-(difluoromethyl)-5,5-difluoro-3b,4,4a,5-tetrahydro-1H-cyclopropa[3,4]cyclopenta[1,2-c]pyrazol-1-yl)acetamido)-2-(3,5-difluorophenyl)ethyl)-6-(3-hydroxy-3-methylbut-1-yn-1-yl)pyridin-3-yl)-1-methyl-1H-indazol-3-yl)isobutyramide], in the data set with HIV-IIIb, the inhibition at 0.2 µM came to 100% and the inhibition at 2 µM worked out at 100%. The molecule also yielded a CC50 at 5 days in data set [1] of 7 µM.
Regarding `Cn1nc(NC(=O)N2CCOCC2)c2cccc(-c3ccc(C#CC(C)(C)O)nc3[C@H](Cc3cc(F)cc(F)c3)NC(=O)Cn3nc(C(F)(F)F)c4c3C(F)(F)[C@@H]3C[C@H]43)c21` [Compound 52, N-(7-(2-((S)-1-(2-((3bS,4aR)-5,5-difluoro-3-(trifluoromethyl)-3b,4,4a,5-tetrahydro-1H-cyclopropa[3,4]cyclopenta[1,2-c]pyrazol-1-yl)acetamido)-2-(3,5-difluorophenyl)ethyl)-6-(3-hydroxy-3-methylbut-1-yn-1-yl)pyridin-3-yl)-1-methyl-1H-indazol-3-yl)morpholine-4-carboxamide], in the data set with HIV-IIIb, the inhibition at 0.2 µM is 92% and the inhibition at 2 µM was 93%. The same molecule yielded a CC50 at 5 days in data set [1] of 31.8 µM.
As to `CC(C)(O)C#Cc1ccc(-c2cccc3c(N)nccc23)c([C@H](Cc2cc(F)cc(F)c2)NC(=O)Cn2nc(C(F)(F)F)c3c2C(F)(F)[C@@H]2C[C@H]32)n1` [Compound 73, N—((S)-1-(3-(1-aminoisoquinolin-5-yl)-6-(3-hydroxy-3-methylbut-1-yn-1-yl)pyridin-2-yl)-2-(3,5-difluorophenyl)ethyl)-2-((3b-S,4aR)-5,5-difluoro-3-(trifluoromethyl)-3b,4,4a,5-tetrahydro-1H-cyclopropa[3,4]cyclopenta[1,2-c]pyrazol-1-yl)acetamide], in the data set with HIV-IIIb, the inhibition at 0.2 µM amounted to 86% and the inhibition at 2 µM worked out at 86%. The molecule further came in with a CC50 at 5 days in data set [1] of 4.49 µM.
Consider `Cc1n[nH]c2cccc(-c3ccc(C#CC(C)(C)O)nc3[C@H](Cc3cc(F)cc(F)c3)NC(=O)Cn3nc(C(F)(F)F)c4c3C(F)(F)[C@@H]3C[C@H]43)c12` [Compound 79, 2-((3bS,4aR)-5,5-difluoro-3-(trifluoromethyl)-3b,4,4a,5-tetrahydro-1H-cyclopropa[3,4]cyclopenta[1,2-c]pyrazol-1-yl)-N—((S)-2-(3,5-difluorophenyl)-1-(6-(3-hydroxy-3-methylbut-1-yn-1-yl)-3-(3-methyl-1H-indazol-4-yl)pyridin-2-yl)ethyl)acetamide], for which, in the data set with HIV-IIIb, the inhibition at 0.2 µM worked out at 100% and the inhibition at 2 µM amounted to 100%. In data set [1], this molecule came in with a 50% cytotoxic concentration (CC50) at 5 days of 4.72 µM.
`Cn1nc(NS(C)(=O)=O)c2cccc(-c3cnc(C#CC(C)(C)O)nc3[C@H](Cc3cc(F)cc(F)c3)NC(=O)Cn3nc(C(F)F)c4c3C(F)(F)CCC4(F)F)c21` [Compound 40, (S)-2-(3-(difluoromethyl)-4,4,7,7-tetrafluoro-4,5,6,7-tetrahydro-1H-indazol-1-yl)-N-(2-(3,5-difluorophenyl)-1-(2-(3-hydroxy-3-methylbut-1-yn-1-yl)-5-(1-methyl-3-(methylsulfonamido)-1H-indazol-7-yl)pyrimidin-4-yl)ethyl)acetamide]: in the data set on HIV-IIIb, the inhibition at 0.2 µM was found to be 87% and the inhibition at 2 µM was determined as 87%. This molecule registered a CC50 at 5 days in data set [1] of 8.72 µM.
Take `CC(C)(O)C#Cc1ccc(-c2cccn3c(C(F)F)nnc23)c([C@H](Cc2cc(F)cc(F)c2)NC(=O)Cn2nc(C(F)F)c3c2C(F)(F)[C@@H]2C[C@H]32)n1` [Compound 138, 2-((3b-S,4aR)-3-(difluoromethyl)-5,5-difluoro-3b,4,4a,5-tetrahydro-1H-cyclopropa[3,4]cyclopenta[1,2-c]pyrazol-1-yl)-N—((S)-1-(3-(3-(difluoromethyl)-[1,2,4]triazolo[4,3-a]pyridin-8-yl)-6-(3-hydroxy-3-methylbut-1-yn-1-yl)pyridin-2-yl)-2-(3,5-difluorophenyl)ethyl)acetamide]: in the data set with HIV-IIIb, the inhibition at 0.2 µM was found to be 61% and the inhibition at 2 µM worked out at 83%. Besides, the midpoint of cytotoxicity in data set [1], the CC50 at 5 days, lay at 33.4 µM.
For `CC(C)(O)C#Cc1ccc(-c2cnc3[nH]ccc3c2F)c([C@H](Cc2cc(F)cc(F)c2)NC(=O)Cn2nc(C(F)(F)F)c3c2C(F)(F)[C@@H]2C[C@H]32)n1` [Compound 36C, 2-((3bS,4aR)-5,5-difluoro-3-(trifluoromethyl)-3b,4,4a,5-tetrahydro-1H-cyclopropa[3,4]cyclopenta[1,2-c]pyrazol-1-yl)-N—((S)-2-(3,5-difluorophenyl)-1-(3-(4-fluoro-1H-pyrrolo[2,3-b]pyridin-5-yl)-6-(3-hydroxy-3-methylbut-1-yn-1-yl)pyridin-2-yl)ethyl)acetamide], in that order: 88%, 92% and 3.15 µM.
For the molecule `Cn1nc(NC(=O)C(C)(C)O)c2c(Cl)ccc(-c3ccc(C#CC(C)(C)O)nc3[C@H](Cc3cc(F)cc(F)c3)NC(=O)Cn3nc(C(F)F)c4c3C(F)(F)[C@@H]3C[C@H]43)c21` [Compound 89, N-(4-chloro-7-(2-((S)-1-(2-((3b-S,4aR)-3-(difluoromethyl)-5,5-difluoro-3b,4,4a,5-tetrahydro-1H-cyclopropa[3,4]cyclopenta[1,2-c]pyrazol-1-yl)acetamido)-2-(3,5-difluorophenyl)ethyl)-6-(3-hydroxy-3-methylbut-1-yn-1-yl)pyridin-3-yl)-1-methyl-1H-indazol-3-yl)-2-hydroxy-2-methylpropanamide], in the data set with HIV-IIIb, the inhibition at 0.2 µM stood at 95% and the inhibition at 2 µM was determined as 95%. In data set [1], this molecule displayed a CC50 at 5 days of 7.77 µM.
For `Cn1nc(NS(C)(=O)=O)c2c(Cl)ccc(-c3cc(C(N)=O)cnc3[C@H](Cc3cc(F)cc(F)c3)NC(=O)Cn3nc(C(F)F)c4c3C(F)(F)[C@@H]3C[C@H]43)c21` [Compound 186D, 5-(4-chloro-1-methyl-3-(methylsulfonamido)-1H-indazol-7-yl)-6-((S)-1-(2-((3bS,4aR)-3-(difluoromethyl)-5,5-difluoro-3b,4,4a,5-tetrahydro-1H-cyclopropa[3,4]cyclopenta[1,2-c]pyrazol-1-yl)acetamido)-2-(3,5-difluorophenyl)ethyl)nicotinamide], in the data set with HIV-IIIb, the inhibition at 0.2 µM stood at 87% and the inhibition at 2 µM was 87%. Further, the CC50 at 5 days in data set [1] stood at 1.52 µM.

(Values after US20140303164A1, “THERAPEUTIC COMPOUNDS” (Gilead Sciences, Inc., priority 2013, published 2014).)
